# Assay results as given in patent US20250074885A1, “CRYSTALLINE FREEBASE FORM OF 2-(4-CHLOROBENZYLAMINO)-4-(4-TERT-BUTYLAMINOPIPERIDIN-1-YL)-QUINOLINE AND USES THEREOF” (Genoscience Pharma, priority 2023, published 2025).
# Where two headings read alike, the source gives them in different places.
# Legend:
# Format in all cases: physicochemical
# [1] = Visual (apparent) solubility assessment in re-crystallization solvents; details: for solubility: 20 °C, organic solvent or mixture, thermodynamic from solid, read-out: Estimated solubility
# Description: Prior to launching the slurry experiments, an “apparent solubility” is determined in all ageing media. To do so, to accurately weighed small amounts of 2-(4-chlorobenzylamino)-4-(4-tert-butylaminopiperidin-1-yl)-quinoline, aliquots of each solvent are successively added until complete dissolution is observed. The corresponding solubility S is then estimated.
# [2] = Dynamic water vapor sorption (DVS) analysis; details: for Hygroscopicity: DVS; for Conversion into hydrated form: high relative humidity up to 95%
# Description: The dynamic vapor sorption (DVS) analysis (gas water sorption) is performed on a DVS-Intrinsic incubator (SMS Ltd), equipped with DVS-Intrinsic Control Software 1.0.
# The sample, placed in an aluminum basket holder, is submitted to a full-cycle analysis (sorption followed by desorption cycle) under the conditions described in Table 9.
# The sample is first pre-dried under a stream of dry air until a stabilized sample mass is observed. Then, the relative humidity is increased by 5% increments. At each step, the sample mass is allowed to increase until equilibrium is reached (according to a given dm/dt target), and then a new relative humidity rise occurs. Relative humidity is ramped up to 95%. After equilibration at this point, desorption begins in a similar stepwise manner, with sample mass decrease again allowed to stabilize after each incremental humidity decrease.
# With both segments of the above described method, the sample mass recording allows describing of the whole vapor water sorption/desorption behavior versus relative humidity.
# [3] = Chemical stability of bulk powder under temperature and humidity stress (HPLC); details: for Chemical stability as a bulk powder: at least 1 month at +40° C./75% RH and at +60° C.; for % of unchanged compound left (HPLC-UV at 323 nm): bulk powder, versus standard solutions
# Description: (§1) The chemical and physical accelerated stability of crystalline form I (see example II) is studied in order to anticipate potential stability issues upon storage or ageing.
# (§2) Crystalline form I powder is stored for 1 month at +40° C./75% RH and is also stored for 1 month at +60° C. (with % RH<10%).
# The chemical stability is then assessed by chromatography by external standardization versus a freshly prepared (non-stressed crystalline form I) standard solution. For that purpose, three samples (exactly weighted) are stored for each condition.
# [4] = Physical stability of bulk powder under temperature and humidity stress (XRPD, DSC, TGA); details: for Physical stability as a bulk powder: at least 1 month at +40° C./75% HR and at +60° C.
# Description: as §1, §2
# The physical stability is also assessed by XRPD, DSC and TGA analyses by comparing the XRPD and thermal profiles of stressed samples to those of a non-stressed sample. For that purpose, one more sample is stored in each condition (respectively +40° C./75% RH and +60° C.).
# [5] = Thermogravimetric analysis (TGA), thermal decomposition
# Description: Thermogravimetric analysis is performed on a TA Instruments TGA Hi-Res 2950 apparatus equipped with an evolved gas analysis furnace. A ThermoNicolet Nexus FTIR bench, equipped with FTIR cell gas analysis, is coupled to TGA apparatus via a transfer line.
# A sample is placed in an opened aluminum basket and analyzed according to conditions described in Table 6.
# [6] = 1 month +40° C./75% RH and +60° C.
structure (smiles),measurement,setting,value
CC(C)(C)NC1CCN(c2cc(NCc3ccc(Cl)cc3)nc3ccccc23)CC1 [2-(4-chlorobenzylamino)-4-(4-tert-butylaminopiperidin-1-yl)-] [2-(4-chlorobenzylamino)-4-(4-tert-butylaminopiperidin-1-yl)-quinoline],Solubility (grade in words),"[1]; Acetone, 20-25° C.",Medium
same,Solubility (grade in words),"[1]; EtAc, 20-25° C.",Medium
same,Solubility (grade in words),"[1]; EtOH, 20-25° C.",Medium
same,Solubility (grade in words),"[1]; IPA, 20-25° C.",Low
same,Solubility (grade in words),"[1]; IPAC, 20-25° C.",Medium
same,Solubility (grade in words),"[1]; MEK, 20-25° C.",Low
same,Solubility (grade in words),"[1]; Propanol-1, 20-25° C.",Medium
same,Hygroscopicity,[2]; +25° C.,not hygroscopic at all
same,Conversion into hydrated form,[2],does not convert into any hydrated form
same,Chemical stability as a bulk powder,[3],chemically and physically stable
same,Physical stability as a bulk powder,[4],chemically and physically stable
CC(C)(C)NC1CCN(c2cc(NCc3ccc(Cl)cc3)nc3ccccc23)CC1 [2-(4-chlorobenzylamino)-4-(4-tert-butylaminopiperidin-1-yl)-quinoline],solubility,"[1]; Acetone, visual, 20-25° C.",> 16 mg/mL
same,solubility,"[1]; EtAc, visual, 20-25° C.",> 17.1 mg/mL
same,solubility,"[1]; EtOH, visual, 20-25° C.",> 9.8 mg/mL
same,solubility,"[1]; IPA, visual, 20-25° C.",> 2.6 mg/mL
same,solubility,"[1]; IPAC, visual, 20-25° C.",> 15.2 mg/mL
same,solubility,"[1]; MEK, visual, 20-25° C.",> 2.4 mg/mL
same,solubility,"[1]; Propanol-1, visual, 20-25° C.",> 15.1 mg/mL
"CC(C)(C)NC1CCN(c2cc(NCc3ccc(Cl)cc3)nc3ccccc23)CC1 [Crystalline Form I, 2-(4-chlorobenzylamino)-4-(4-tert-butylaminopiperidin-1-yl)-quinoline]",Sample mass variation upon sorption,"[2]; +25° C., 0% to 10% RH",no significant mass variation
same,Hygroscopicity,[2]; +25° C.,non-hygroscopic at all
same,Final sample mass lower than starting mass after desorption,"[2]; +25° C., back to 0% RH, cycle 1, versus mass after pre-drying",0.09%
same,Hysteresis on loss of adsorbed water (desorption),"[2]; +25° C., between 95% and 65% RH",without hysteresis
same,Mass loss during preliminary drying phase,"[2]; +25° C./0% RH, before sorption",0.12%
same,Water uptake,"[2]; +25° C./60% RH, sorption cycle 1",0.09%
same,Total water uptake,"[2]; +25° C./95% RH, sorption cycle 1",0.29%
same,Conversion into hydrated form,[2],does not convert into any hydrated form
same,% purity at 323 nm after stress,[3]; 1 month +40° C./75% RH,(% purity = 98.7% at 323 nm)
same,"Impurity profile compared to the standard profile (HPLC-UV at 323 nm, 252 nm and 203 nm)",[3]; 1 month +40° C./75% RH,No additional impurity
same,% purity at 323 nm after stress,[3]; 1 month +60° C.,(% purity = 98.8% at 323 nm)
same,"Impurity profile compared to the standard profile (HPLC-UV at 323 nm, 252 nm and 203 nm)",[3]; 1 month +60° C.,No additional impurity
same,Chemical stability as a bulk powder,[3],chemically stable
same,% of unchanged compound left (HPLC-UV at 323 nm),[3]; 1 month +40° C./75% RH,99.7%
same,% of unchanged compound left (HPLC-UV at 323 nm),[3]; 1 month +60° C.,100.5%
same,TOnset of main thermal decomposition (TGA),[5]; non-stressed sample (initial analysis),+333 °C
same,Mass loss before the main thermal decomposition (TGA),"[5]; non-stressed sample, upon heating",no mass loss is detected
same,XRPD results,[4]; 1 month +40° C./75% HR,Diffractogram comparable to the initial
same,TOnset of main thermal decomposition (TGA),[4]; 1 month +40° C./75% RH,+333 °C
same,TGA difference between stressed samples and initial physical form,[4]; [6],No difference
same,XRPD pattern difference between stressed samples and initial physical form,[4]; [6],No XRPD pattern difference
same,TOnset of main thermal decomposition (TGA),[4]; 1 month +60° C.,+334 °C
same,XRPD results,[4]; 1 month +60° C.,Diffractogram comparable to the initial
same,Physical stability as a bulk powder,[4],physically stable
same,DSC profile difference between stressed samples and initial physical form,[4]; stored at +40° C./75% RH and at +60° C.,No DSC profile difference
